Source: patent US12660819B2, “Herbicidal derivatives” (SYNGENTA CROP PROTECTION AG, priority 2020, dated 2026)

Columns and labels:
Format in all cases: in vivo
[1] = tested on: Abutilon theophrasti (ABUTH); assay: Pre-emergence Test (glasshouse, percentage damage to the plant); settings: 1000 g/ha unless otherwise stated, five-point scale
Zea mays (ZEAMX) [2] = assay: as above; settings: 1000 g/ha unless otherwise stated, five-point scale
Setaria faberi (SETFA) [3] = assay: as above; settings: 1000 g/ha unless otherwise stated, five-point scale
[4] = tested on: Amaranthus retoflexus (AMARE); assay: as above; settings: 1000 g/ha unless otherwise stated, five-point scale
[5] = tested on: Ipomoea hederacea (IPOHE); assay: as above; settings: 1000 g/ha unless otherwise stated, five-point scale
Zea mays (ZEAMX) [6] = assay: Post-emergence Test (glasshouse, percentage damage to the plant); settings: post-emergence spray, 1000 g/ha unless otherwise stated, evaluated after 13 days
How it was run: (§1)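 After sowing in standard soil, pots were kept at 24/16 °C (day/night), 14 h light and 65% humidity. They were sprayed at 1000 g/ha unless otherwise stated, watered twice daily, and assessed for percentage damage at 13 days on a 1–5 scale.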

[7] = tested on: Echinochloa crus-galli (ECHCG); assay: as above; settings: post-emergence spray, 1000 g/ha unless otherwise stated, evaluated after 13 days
How it was run: (§2)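 Scored 13 days after spraying as percentage plant damage in five bands (5=81–100%, 4=61–80%, 3=41–60%, 2=21–40%, 1=0–20%). Spray at 1000 g/ha unless stated, in acetone/water 50:50 plus 0.5% Tween 20, onto sown glasshouse pots (24/16 °C, 14 h light, 65% humidity).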

[8] = tested on: Amaranthus retoflexus (AMARE); assay: as above; settings: post-emergence spray, 1000 g/ha unless otherwise stated, evaluated after 13 days
How it was run: as §2

[9] = tested on: Abutilon theophrasti (ABUTH); assay: as above; settings: post-emergence spray, 1000 g/ha unless otherwise stated, evaluated after 13 days
How it was run: as §2

[10] = tested on: Ipomoea hederacea (IPOHE); assay: as above; settings: post-emergence spray, 1000 g/ha unless otherwise stated, evaluated after 13 days
How it was run: as §1

Setaria faberi (SETFA) [11] = assay: as above; settings: post-emergence spray, 1000 g/ha unless otherwise stated, evaluated after 13 days
How it was run: as §1

[12] = tested on: Echinochloa crus-galli (ECHCG); assay: Pre-emergence Test (glasshouse, percentage damage to the plant); settings: 1000 g/ha unless otherwise stated, five-point scale

| Compound | percentage damage to the plant, ABUTH [1] | percentage damage to the plant, ZEAMX (Zea mays (ZEAMX) [2]) | percentage damage to the plant, SETFA (Setaria faberi (SETFA) [3]) | percentage damage to the plant, AMARE [4] | percentage damage to the plant, IPOHE [5] | Post-emergence Test ZEAMX, percentage damage to the plant (five-point scale) (Zea mays (ZEAMX) [6]) | Post-emergence Test ECHCG, percentage damage to the plant (five-point scale) [7] | Post-emergence Test AMARE, percentage damage to the plant (five-point scale) [8] | Post-emergence Test ABUTH, percentage damage to the plant (five-point scale) [9] | Post-emergence Test IPOHE, percentage damage to the plant (five-point scale) [10] | Post-emergence Test SETFA, percentage damage to the plant (five-point scale) (Setaria faberi (SETFA) [11]) | percentage damage to the plant, ECHCG [12] |
| --- | --- | --- | --- | --- | --- | --- | --- | --- | --- | --- | --- | --- |
| CCn1c(C)c(-c2cccc(C(C)=O)c2)c(=O)c(C(=O)O)c1-c1ccc(Cl)c(Cl)c1 [Compound 112, 5-(3-acetylphenyl)-2-(3,4-dichlorophenyl)-1-ethyl-6-methyl-4-oxo-pyridine-3-carboxylic acid] | 2 (2=21-40%) | 1 (1=0-20%) | 4 (4=61-80%) | 1 (1=0-20%) | 1 (1=0-20%) | 1 (1=0-20%) | 3 (3=41-60%) | 2 (2=21-40%) | 3 (3=41-60%) | 2 (2=21-40%) | 4 (4=61-80%) | 1 (1=0-20%) |
| CCn1c(C)c(-c2cccc(OC)n2)c(=O)c(C(=O)O)c1-c1ccc(Cl)c(Cl)c1 [Compound 113, 2-(3,4-dichlorophenyl)-1-ethyl-5-(6-methoxy-2-pyridyl)-6-methyl-4-oxo-pyridine-3-carboxylic acid] | 3 (3=41-60%) | 2 (2=21-40%) | 4 (4=61-80%) | 1 (1=0-20%) | 2 (2=21-40%) | 2 (2=21-40%) | 3 (3=41-60%) | 3 (3=41-60%) | 4 (4=61-80%) | 2 (2=21-40%) | 4 (4=61-80%) | 1 (1=0-20%) |
| CCn1c(C)c(-c2cccc(SC)c2)c(=O)c(C(=O)O)c1-c1ccc(Cl)c(Cl)c1 [Compound 114, 2-(3,4-dichlorophenyl)-1-ethyl-6-methyl-5-(3-methylsulfanylphenyl)-4-oxo-pyridine-3-carboxylic acid] | 1 (1=0-20%) | 1 (1=0-20%) | 1 (1=0-20%) | 1 (1=0-20%) | 1 (1=0-20%) | 1 (1=0-20%) | 1 (1=0-20%) | 1 (1=0-20%) | 1 (1=0-20%) | 1 (1=0-20%) | 1 (1=0-20%) | 1 (1=0-20%) |
| CCn1c(C)c(-c2ccc(Cl)cc2)c(=O)c(C(=O)O)c1-c1ccc(F)c(F)c1 [Compound 128, 5-(4-chlorophenyl)-2-(3,4-difluorophenyl)-1-ethyl-6-methyl-4-oxo-pyridine-3-carboxylic acid] | 3 (3=41-60%) | 2 (2=21-40%) | 5 (5=81-100%) | 4 (4=61-80%) | 1 (1=0-20%) | 3 (3=41-60%) | 3 (3=41-60%) | 3 (3=41-60%) | 4 (4=61-80%) | 2 (2=21-40%) | 4 (4=61-80%) | 2 (2=21-40%) |
| CCn1c(C)c(-c2ccc(Cl)cc2)c(=O)c(C(=O)O)c1-c1ccc(Br)c(F)c1 [Compound 129, 2-(4-bromo-3-fluoro-phenyl)-5-(4-chlorophenyl)-1-ethyl-6-methyl-4-oxo-pyridine-3-carboxylic acid] | 2 (2=21-40%) | 1 (1=0-20%) | 5 (5=81-100%) | 5 (5=81-100%) | 2 (2=21-40%) | 2 (2=21-40%) | 2 (2=21-40%) | 3 (3=41-60%) | 3 (3=41-60%) | 3 (3=41-60%) | 3 (3=41-60%) | 2 (2=21-40%) |
| CCn1c(C)c(-c2ccc(Cl)cc2)c(=O)c(C(=O)O)c1-c1ccc(F)cc1F [Compound 130, 5-(4-chlorophenyl)-2-(2,4-difluorophenyl)-1-ethyl-6-methyl-4-oxo-pyridine-3-carboxylic acid] | 3 (3=41-60%) | 3 (3=41-60%) | 5 (5=81-100%) | 3 (3=41-60%) | 3 (3=41-60%) | 2 (2=21-40%) | 3 (3=41-60%) | 3 (3=41-60%) | 3 (3=41-60%) | 3 (3=41-60%) | 4 (4=61-80%) | 4 (4=61-80%) |
| CCn1c(C)c(-c2ccc(Cl)cc2)c(=O)c(C(=O)O)c1-c1ccc(Cl)cn1 [Compound 131, 5-(4-chlorophenyl)-2-(5-chloro-2-pyridyl)-1-ethyl-6-methyl-4-oxo-pyridine-3-carboxylic acid] | 0 | 0 | 0 | 0 | 0 | 2 (2=21-40%) | 0 | 1 (1=0-20%) | 1 (1=0-20%) | 1 (1=0-20%) | 3 (3=41-60%) | 0 |
| CCn1c(-c2ccc(Cl)c(Cl)c2)c(C(=O)O)c(=O)c(-c2ccc(Cl)cc2)c1C(F)(F)F [Compound 132, 5-(4-chlorophenyl)-2-(3,4-dichlorophenyl)-1-ethyl-4-oxo-6-(trifluoromethyl) pyridine-3-carboxylic acid] | 4 (4=61-80%) | 0 | 0 | 5 (5=81-100%) | 2 (2=21-40%) | 1 (1=0-20%) | 0 | 5 (5=81-100%) | 3 (3=41-60%) | 4 (4=61-80%) | 0 | 0 |
| CCOC(=O)c1c(-c2ccc(F)cc2F)n(CC)c(C)c(-c2ccc(Cl)cc2)c1=O [Compound 134, ethyl 5-(4-chlorophenyl)-2-(2,4-difluorophenyl)-1-ethyl-6-methyl-4-oxo-pyridine-3-carboxylate] | 1 (1=0-20%) | 0 | 0 | 1 (1=0-20%) | 0 | 3 (3=41-60%) | 4 (4=61-80%) | 3 (3=41-60%) | 3 (3=41-60%) | 3 (3=41-60%) | 4 (4=61-80%) | 0 |
| CCn1c(C)c(-c2ccccc2)c(=O)c(C(=O)O)c1-c1ccc(F)cc1F [Compound 135, 2-(2,4-difluorophenyl)-1-ethyl-6-methyl-4-oxo-5-phenyl-pyridine-3-carboxylic acid] | 3 (3=41-60%) | 0 | 5 (5=81-100%) | 1 (1=0-20%) | 3 (3=41-60%) | 0 | 0 | 2 (2=21-40%) | 1 (1=0-20%) | 1 (1=0-20%) | 0 | 2 (2=21-40%) |
